Measured values: ChEMBL document CHEMBL1201862, “PubChem BioAssay data set” (2004)
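Exposure lasted 48 hours, with cells grown in 96-well plates and compounds tested at five concentrations. GI50: concentration for 50% inhibition of growth.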 Calls of active or inactive are those of the source. Rule as the data show it: active = GI50 up to about 1.1 µM and inactive = higher.

Assays:
Assay in all cases: DTP human tumour cell line panel, 48 h
[1] = tested on: 786-0
[2] = tested on: EKVX
[3] = tested on: KM12
[4] = tested on: SK-MEL-28
[5] = tested on: SF-268
[6] = tested on: TK-10
[7] = tested on: Malme-3M
[8] = tested on: A549
[9] = tested on: SK-MEL-5
[10] = tested on: SNB-19
[11] = tested on: NCI-H522
[12] = tested on: SF-295
[13] = tested on: LOX IMVI
[14] = tested on: HOP-62
[15] = tested on: CCRF-CEM
[16] = tested on: UACC-257
[17] = tested on: RPMI-8226
[18] = tested on: UACC-62

Measured: GI50

BrC12C3C4C5C(C(C43)C13OCCO3)C52 (stereo not given)
inactive: [1] > 100 µM | [2] > 100 µM | [3] > 100 µM | [4] > 100 µM | [5] > 100 µM | [6] > 100 µM | [7] > 100 µM | [8] > 100 µM | [9] > 100 µM | [10] > 100 µM | [11] > 100 µM | [12] > 100 µM | [13] > 100 µM | [14] > 100 µM | [15] > 100 µM | [16] > 100 µM | [17] > 100 µM

O=C1NC(=S)NC(=O)C1=Cc1ccc2ccccc2n1
inactive: [1] > 100 µM | [2] > 100 µM | [3] > 100 µM | [4] > 100 µM | [5] > 100 µM | [6] > 100 µM | [7] > 100 µM | [8] > 100 µM | [9] > 100 µM | [10] > 100 µM | [11] > 100 µM | [18] > 100 µM | [12] > 100 µM | [13] > 100 µM | [14] > 100 µM | [15] > 100 µM | [16] > 100 µM | [17] > 100 µM

COC(=O)/C(C#N)=C1\CCC(OC)N1C (stereo not given)
inactive: [1] > 100 µM | [2] > 100 µM | [3] > 100 µM | [4] > 100 µM | [5] > 100 µM | [6] > 100 µM | [7] > 100 µM | [8] > 100 µM | [9] > 100 µM | [10] > 100 µM | [11] > 100 µM | [18] > 100 µM | [12] > 100 µM | [13] > 100 µM | [14] > 100 µM | [15] > 100 µM | [16] > 100 µM | [17] > 100 µM

Cc1cc2nc(O)c(CCC(=O)O)nc2cc1C
inactive: [1] > 100 µM | [2] > 100 µM | [3] > 100 µM | [4] > 100 µM | [5] > 100 µM | [6] > 100 µM | [7] > 100 µM | [8] > 100 µM | [9] > 100 µM | [10] > 100 µM | [11] 83.8 µM | [18] > 100 µM | [12] > 100 µM | [13] > 100 µM | [14] > 100 µM | [15] > 100 µM | [16] > 100 µM | [17] > 100 µM

O=C1C(c2ccccc2)=[N+]([O-])c2ccc(Cl)cc21
inactive: [1] 82.4 µM | [2] 16.9 µM | [3] 30.1 µM | [4] 20 µM | [5] 22.4 µM | [6] 29.2 µM | [7] 26.2 µM | [8] 32.1 µM | [9] 17.3 µM | [10] 34.5 µM | [11] 15.3 µM | [18] 17.5 µM | [12] 34.1 µM | [13] 18.4 µM | [14] 63.4 µM | [15] 25.9 µM | [16] 19.3 µM | [17] 21.2 µM

O=C1CC2=CCCC2O1 (stereo not given)
inactive: [1] > 100 µM | [2] > 100 µM | [3] > 100 µM | [4] > 100 µM | [5] > 100 µM | [6] > 100 µM | [7] > 100 µM | [8] > 100 µM | [9] > 100 µM | [10] > 100 µM | [11] > 100 µM | [18] > 100 µM | [12] > 100 µM | [13] > 100 µM | [14] > 100 µM | [15] > 100 µM | [16] > 100 µM | [17] > 100 µM

CC(/C=C/NNC1=NN=C(c2ccccc2)C(c2ccccc2)N1)Sc1ccccc1N (stereo not given)
inactive: [1] 3.71 µM | [2] 18.5 µM | [3] 8.85 µM | [4] 8.93 µM | [5] 4.53 µM | [6] 14.2 µM | [7] 7.05 µM | [8] 11.4 µM | [9] 9.66 µM | [10] 12.5 µM | [11] 3.56 µM | [18] 3.39 µM | [12] 10.5 µM | [13] 3.18 µM | [14] 17.9 µM | [15] 2.46 µM | [16] 7.06 µM | [17] 3.64 µM
